Biological target: H1047R PIK3CA enzyme (Homo sapiens, UniProt P42336, H1047R)
Experiment: ADP-Glo Biochemical PIK3CA Kinase Assay

H1047R PIK3CA enzyme, sequence (P42336 whole entry H1047R): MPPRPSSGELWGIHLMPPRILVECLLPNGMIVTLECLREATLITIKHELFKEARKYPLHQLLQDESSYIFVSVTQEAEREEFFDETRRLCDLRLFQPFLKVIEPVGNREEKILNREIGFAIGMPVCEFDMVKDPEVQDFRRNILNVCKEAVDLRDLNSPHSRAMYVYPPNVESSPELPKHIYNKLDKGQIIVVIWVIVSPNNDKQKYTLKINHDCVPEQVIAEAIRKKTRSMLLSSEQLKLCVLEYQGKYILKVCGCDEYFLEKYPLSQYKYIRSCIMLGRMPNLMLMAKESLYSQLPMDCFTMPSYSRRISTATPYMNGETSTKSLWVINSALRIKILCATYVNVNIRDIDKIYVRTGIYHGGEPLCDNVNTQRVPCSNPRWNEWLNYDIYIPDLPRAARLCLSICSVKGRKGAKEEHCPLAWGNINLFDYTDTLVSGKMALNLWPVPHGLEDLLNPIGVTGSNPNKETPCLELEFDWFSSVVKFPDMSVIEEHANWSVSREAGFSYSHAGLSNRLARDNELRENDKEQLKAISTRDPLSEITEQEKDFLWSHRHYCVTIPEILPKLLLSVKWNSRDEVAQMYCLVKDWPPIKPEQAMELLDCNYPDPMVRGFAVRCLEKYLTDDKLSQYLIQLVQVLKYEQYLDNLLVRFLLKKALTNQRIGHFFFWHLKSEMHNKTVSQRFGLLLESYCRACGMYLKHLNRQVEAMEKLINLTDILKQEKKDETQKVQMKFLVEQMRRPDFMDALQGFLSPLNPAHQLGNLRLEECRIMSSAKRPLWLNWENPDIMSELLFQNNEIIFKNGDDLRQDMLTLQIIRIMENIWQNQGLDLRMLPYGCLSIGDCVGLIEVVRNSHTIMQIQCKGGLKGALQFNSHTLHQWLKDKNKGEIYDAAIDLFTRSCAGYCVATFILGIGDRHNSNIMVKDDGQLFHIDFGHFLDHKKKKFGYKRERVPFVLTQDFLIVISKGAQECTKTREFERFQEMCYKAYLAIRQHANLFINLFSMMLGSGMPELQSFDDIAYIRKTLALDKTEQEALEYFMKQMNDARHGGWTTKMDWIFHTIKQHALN
H1047R PIK3CA enzyme, sequence (P27986 whole entry partner): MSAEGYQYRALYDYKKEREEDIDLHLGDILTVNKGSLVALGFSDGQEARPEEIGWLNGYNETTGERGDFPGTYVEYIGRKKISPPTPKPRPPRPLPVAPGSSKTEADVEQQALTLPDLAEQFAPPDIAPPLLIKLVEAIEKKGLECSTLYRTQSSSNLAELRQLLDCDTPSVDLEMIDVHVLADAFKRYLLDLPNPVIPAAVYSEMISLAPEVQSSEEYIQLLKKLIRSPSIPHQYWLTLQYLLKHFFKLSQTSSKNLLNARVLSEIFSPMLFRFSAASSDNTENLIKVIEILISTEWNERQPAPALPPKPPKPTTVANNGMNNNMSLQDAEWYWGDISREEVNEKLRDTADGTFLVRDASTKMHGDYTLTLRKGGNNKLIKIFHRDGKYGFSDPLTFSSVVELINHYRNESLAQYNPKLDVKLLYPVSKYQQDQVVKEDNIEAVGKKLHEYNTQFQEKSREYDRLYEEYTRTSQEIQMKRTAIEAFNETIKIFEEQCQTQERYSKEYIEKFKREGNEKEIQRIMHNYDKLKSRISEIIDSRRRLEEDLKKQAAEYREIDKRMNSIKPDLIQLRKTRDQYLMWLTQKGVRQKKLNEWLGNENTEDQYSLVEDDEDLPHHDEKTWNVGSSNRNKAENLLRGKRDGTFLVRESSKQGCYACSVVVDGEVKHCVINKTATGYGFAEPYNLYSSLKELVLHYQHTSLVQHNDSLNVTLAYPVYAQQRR

| IC50 | Compound |
| --- | --- |
| 10 to 100 µM | CN(C(=O)Nc1cccc2c1C(c1cc(F)ccc1Cl)NC2=O)c1ccc(F)cc1 (stereo not shown) [Compound I-2435] |
| 1 to 10 µM | O=C1N[C@@H](c2cc(F)ccc2Cl)c2c(NC(=O)[C@H]3CC(C(F)(F)F)C[C@@H](O)C3)cc(Br)cc21 (single isomer, unassigned) [Compound I-2152] |
| 10 to 100 µM | O=C1NC(c2cc(F)ccc2Cl)c2c(NC(=O)C3COCCN3)cc(-c3ccc4ncnn4c3)cc21 (mixture of isomers) [Compound I-1991] |
| 10 to 100 µM | O=C(Nc1cc(-c2cc(F)c3ncnn3c2)cc2c1[C@@H](c1cc(F)ccc1Cl)NC2=O)c1cc(F)cc(C(F)(F)F)c1 [Compound I-1703] |
| 1 to 10 µM | O=C(Nc1cc(-c2ccn3nc(Cl)nc3c2)cc2c1[C@@H](c1cc(F)ccc1Cl)NC2=O)c1cc(F)cc(C(F)(F)F)c1 [Compound I-1695] |
| ≤ 0.1 µM | [2H]c1nc2cnc(-c3cc(NC(=O)c4cc(F)cc(C(F)(F)F)c4)c4c(c3)C(=O)N[C@H]4c3cc(F)ccc3Cl)cn2n1 [Compound I-2069] |
| 10 to 100 µM | O=C1NC(c2cc(F)ccc2Cl)c2c(NC(=O)N3CCC(C4CC4)C3)cccc21 (stereo not shown) [Compound I-2398] |
| 10 to 100 µM | O=C1N[C@H](c2cc(F)ccc2Cl)c2c(NC(=O)[C@H]3CC[C@@H](O)C3)cc(Br)cc21 (single isomer, unassigned) [Compound I-2103] |
| ≤ 0.1 µM | O=C(Nc1cc(-c2ccc(C(F)F)nc2)cc2c1[C@H](c1cc(F)ccc1Cl)NC2=O)c1cc(F)cc(C(F)(F)F)c1 [Compound I-2008] |
| 1 to 10 µM | CC[C@]1(O)CN(C(=O)Nc2cccc3c2[C@H](c2cc(F)ccc2Cl)NC3=O)c2ccc(F)cc21 (single isomer, unassigned) [Compound I-2462] |
| ≤ 0.1 µM | Cn1ncc(-c2cc(NC(=O)c3cc(F)cc(C(F)(F)F)c3)c3c(c2)C(=O)N[C@H]3c2cc(F)ccc2Cl)c1C#N [Compound I-1795] |
| 10 to 100 µM | CN1CCN(C(=O)Nc2cc(Br)cc3c2[C@H](c2cc(F)ccc2Cl)NC3=O)CC1(C)C (single isomer, unassigned) [Compound I-2240] |
| ≤ 0.1 µM | O=C(Nc1cc(-c2ccc3ncc(C(F)F)n3c2)cc2c1C(c1cc(F)ccc1Cl)NC2=O)c1cc(F)cc(C(F)(F)F)c1 (stereo not shown) [Compound I-1866] |
| 1 to 10 µM | O=C(Nc1cc(NC2=NC[C@H](C(F)(F)F)O2)cc2c1[C@@H](c1cc(F)ccc1Cl)NC2=O)c1cc(F)cc(C(F)(F)F)c1 (single isomer, unassigned) [Compound I-2325] |
| ≤ 0.1 µM | O=C(Nc1cc(-c2ccc(=O)n(C(F)F)c2)cc2c1[C@H](c1cc(F)ccc1Cl)NC2=O)c1cc(F)cc(C(F)(F)F)c1 [Compound I-1861] |
| 1 to 10 µM | O=C1N[C@H](c2cc(F)ccc2Cl)c2c(NC(=O)N3C[C@](O)(C(F)(F)F)c4cc(F)ccc43)cc(-n3nccn3)cc21 (single isomer, unassigned) [Compound I-2570] |
| 10 to 100 µM | O=C1NC(c2cc(F)ccc2Cl)c2c(NC(=O)C3CCc4ccccc4CC3)cccc21 (stereo not shown) [Compound I-2374] |

More lines, now with the values behind:

| Compound | IC50 |
| --- | --- |
| CC(C)(O)Cc1cc(F)cc(C(=O)Nc2cc(CC(C)(C)O)cc3c2C(c2cc(F)ccc2Cl)NC3=O)c1 (stereo not shown) [Compound I-696] | 10 to 100 µM |
| CC(C)(O)c1cc(NC(=O)c2nsc3ccccc23)c2c(c1)C(=O)NC2c1ccccc1C(F)F (stereo not shown) [Compound I-356] | ≤ 0.1 µM |
| O=C(Nc1cc(Br)cc2c1C(c1cc(F)ccc1Cl)NC2=O)c1cc(F)cc(C(F)F)c1 (stereo not shown) [Compound I-835] | 0.1 to 0.5 µM |
| Cc1ccccc1C1NC(=O)c2cccc(NC(=O)c3nnc4ccc(Cl)cn34)c21 (stereo not shown) [Compound I-400] | 10 to 100 µM |
| Cc1ccccc1C1NC(=O)c2cccc(NC(=O)c3nscc3-c3ccccc3)c21 (stereo not shown) [Compound I-413] | 1 to 10 µM |
| Cc1ccccc1C1NC(=O)c2cc(CCO)cc(NC(=O)c3csc4ccccc34)c21 (stereo not shown) [Compound I-181, N-[6-(2-Hydroxyethyl)-3-(2-methylphenyl)-1-oxo-2,3-dihydro-1H-isoindol-4-yl]-1-benzothiophene-3-carboxamide] | ≤ 0.1 µM |
| Cc1ccccc1C1NC(=O)c2cccc(NC(=O)c3cc(=O)[nH]c4ccccc34)c21 (stereo not shown) [Compound I-30] | 10 to 100 µM |
| Cc1ccccc1C1NC(=O)c2cc(CF)cc(NC(=O)c3cc(F)cc(C(F)(F)F)c3)c21 (stereo not shown) [Compound I-536] | ≤ 0.1 µM |
| CC(C)(O)COc1cc(NC(=O)c2cc(F)cc(C(F)(F)F)c2)c2c(c1)C(=O)N[C@@H]2c1cc(F)ccc1Cl [Compound I-739] | 1 to 10 µM |
| O=C1NC(c2cc(Cl)ccc2Cl)c2c(NC(=O)c3nsc4ccccc34)cccc21 (stereo not shown) [Compound I-157] | ≤ 0.1 µM |
| O=C(Nc1cccc2c1C(c1cc(F)ccc1Cl)NC2=O)c1cc(Cl)cc(F)c1F (stereo not shown) [Compound I-767] | 0.1 to 0.5 µM |
| O=C(Nc1cc(-n2cncc2F)cc2c1C(c1cc(F)ccc1Cl)NC2=O)c1cc(F)cc(C(F)(F)F)c1 (stereo not shown) [Compound I-1128] | ≤ 0.1 µM |
| Cn1cc(-c2cc(NC(=O)c3cc(F)cc(C(F)(F)F)c3)c3c(c2)C(=O)NC3c2cc(F)ccc2Cl)cnc1=O (stereo not shown) [Compound I-1404] | ≤ 0.1 µM |
| NC(=O)Cn1cc(-c2cc(NC(=O)c3cc(F)cc(C(F)(F)F)c3)c3c(c2)C(=O)NC3c2cc(F)ccc2Cl)cn1 (stereo not shown) [Compound I-1481] | ≤ 0.1 µM |
| O=C(Nc1cc(C2CC(F)(F)C2)cc2c1C(c1cc(F)ccc1Cl)NC2=O)c1cc(F)cc(C(F)(F)F)c1 (stereo not shown) [Compound I-779] | ≤ 0.1 µM |
| N#C[C@H]1C[C@H](c2cc(NC(=O)c3cc(F)cc(C(F)(F)F)c3)c3c(c2)C(=O)N[C@H]3c2cc(F)ccc2Cl)C1 (single isomer, unassigned) [Compound I-1326] | ≤ 0.1 µM |
| O=C(Nc1cccc2c(=O)[nH]n(C3CCCCC3)c12)c1cc(F)cc(C(F)(F)F)c1 [Compound I-629] | 1 to 10 µM |
| COCc1cc2c(c(N(C)C(=O)c3nsc4ccccc34)c1)C(c1ccccc1C)NC2=O (stereo not shown) [Compound I-134, N-(6-(Methoxymethyl)-1-oxo-3-(o-tolyl)isoindolin-4-yl)-N-methylbenzo[d]isothiazole-3-carboxamide] | 10 to 100 µM |
| O=C1NC(c2cc(F)ccc2Cl)c2c(NC(=O)N3CCCC3c3ccccc3)cc(Br)cc21 (stereo not shown) [Compound I-769] | 1 to 10 µM |
| O=C(Nc1cc(CN2CCn3ncnc3C2)cc2c1C(c1cc(F)ccc1Cl)NC2=O)c1cc(F)cc(C(F)(F)F)c1 (stereo not shown) [Compound I-1400] | ≤ 0.1 µM |
| Cc1ccccc1C1NC(=O)c2cccc(NC(=O)c3cc(F)cc(OC(F)F)c3)c21 (stereo not shown) [Compound I-59] | 1 to 10 µM |
| O=C(Nc1cc(-c2ccc3ncnn3c2)nc2c1[C@@H](c1cc(F)ccc1Cl)NC2=O)c1cc(F)cc(C(F)(F)F)c1 [Compound I-1230] | 0.1 to 0.5 µM |
| Cn1cnc2ccc(-c3cc(NC(=O)c4cc(F)cc(C(F)(F)F)c4)c4c(c3)C(=O)NC4c3cc(F)ccc3Cl)cc21 (stereo not shown) [Compound I-1027] | ≤ 0.1 µM |
| O=C1CC2(CCN(c3cc(NC(=O)c4cc(F)cc(C(F)(F)F)c4)c4c(c3)C(=O)NC4c3cc(F)ccc3Cl)C2)CN1 (stereo not shown) [Compound I-1267] | ≤ 0.1 µM |
| O=C(Nc1cc(OCc2cccnc2)cc2c1C(c1cc(F)ccc1Cl)NC2=O)c1cc(F)cc(C(F)(F)F)c1 (stereo not shown) [Compound I-1412] | ≤ 0.1 µM |
| CC(c1cc(NC(=O)c2cc(F)cc(C(F)(F)F)c2)c2c(c1)C(=O)NC2c1cc(F)ccc1Cl)[S+](C)[O-] (racemic) [Compound I-1472] | 0.1 to 0.5 µM |

Reference: patent US12581252B2, “Substituted pyrrolo[3,4-b]pyridines as PI3K-α inhibitors” (Relay Therapeutics, Inc., priority 2020, dated 2026)
